Assay results reported in ChEMBL document CHEMBL4428037 (J Med Chem, 2016).
The source made the active and inactive calls. The calls are words filed in the database; no cut-off is given here.

Legend:
Tubulin (Sus scrofa) = Tubulin (Sus scrofa) (UniProt P02554+P02550); assay: Displacement of [3H]colchicine from biotinylated porcine tubulin at 5 uM incubated for 2 hrs by competition scintillation proximity; type: protein assay
A549 [1] = assay: Induction of apoptosis in human A549 cells assessed as increase in PARP cleavage level incubated for 24 hrs by Western blotting; type: functional, cell-based
[2] = Toxicity in human NSCLC xenografted Balb/c-nu mouse assessed as induction of adverse effects at 50 mg/kg, ip dosed every day for 21 consecutive days; type: organism-based; settings: in vivo
HUVEC [3] = assay: Inhibition of capillary tube formation in HUVEC assessed as reduction in tube-like structures formation at 10 nM incubated for 8 hrs by fluorescence microscopy based 3D-matrigel assay; type: functional; settings: Homo sapiens
[4] = Toxicity in human NSCLC xenografted Balb/c-nu mouse assessed as induction of adverse effects at 12.5 mg/kg, ip dosed every day for 21 consecutive days; type: organism-based; settings: in vivo
A549 [5] = assay: Induction of cell cycle arrest in human A549 cells assessed as accumulation at G2/M phase at 40 nM incubated for 24 hrs by propidium iodide staining based FACS flow cytometry; type: functional
NCI-H460 = assay: Inhibition of colony formation in human NCI-H460 cells at 10 nM incubated for 9 days by crystal violet staining based assay; type: functional; settings: NCI-H460, 216 h
[6] = system: Non-small cell lung cancer cell line; assay: Antitumor activity against human NSCLC xenografted in Balb/c-nu mouse assessed as inhibition of tumor growth at 50 mg/kg, ip dosed every day for 21 consecutive days and measured every 3 days; type: functional; settings: 72 h, read-out: TGI
[7] = system: Non-small cell lung cancer cell line; assay: Antitumor activity against human NSCLC xenografted in Balb/c-nu mouse assessed as induction of delay in tumor volume increase at 50 mg/kg, ip dosed every day for 21 consecutive days and measured every 3 days; type: functional, organism-based
MCF7 = assay: cells; settings: Homo sapiens, MCF7, 72 h
HepG2 = assay: Growth inhibition of human HepG2 cells incubated for 72 hrs by MTT assay; type: functional, cell-based; settings: HepG2, 72 h
[8] = system: Non-small cell lung cancer cell line; assay: Antitumor activity against human NSCLC xenografted in Balb/c-nu mouse assessed as induction of delay in tumor volume increase at 12.5 mg/kg, ip dosed every day for 21 consecutive days and measured every 3 days; type: functional, organism-based
HUVEC [9] = assay: Toxicity in HUVEC assessed as effect on cell proliferation at 10 to 40 nM incubated for 8 hrs; type: cell-based; settings: human, 0.04 µM
A549 [10] = assay: Induction of apoptosis in human A549 cells assessed as induction of chromatin condensation at 40 nM incubated for 24 hrs microscopy; type: functional, cell-based

inhibition (Tubulin (Sus scrofa)): 67% | IC50 (MCF7): 32.3 nM | IC50 (HepG2): 26 nM
SMILES: CCOc1cccc(Nc2nn(C)c3c2Cc2cc(OCC)c(OCC(N)=O)cc2-3)c1
Activity (A549 [1]): Dose-dependent effect | Activity [2]: Non-Toxic | inhibition at 0.01 µM (HUVEC [3]): 39% | Activity [4]: Non-Toxic | Activity (A549 [5]): 68.1% | inhibition at 0.01 µM (NCI-H460): 97.3% | inhibition in vivo at 50 mg/kg [6]: 59.1% | Activity [7]: Active | Activity [8]: Active | Activity (HUVEC [9]): Non-Toxic | Activity (A549 [10]): Active
